Laboratory results taken from PubChem BioAssay AID489035 (Sanford-Burnham Center for Chemical Genomics, 2010).
The source made the active and inactive calls. No rule for the calls is given here.

What follows are compounds tested on Jurkat NF-kB reporter, TCR-induced, luciferase luminescence (assay: T-cell NF-kB luciferase reporter inhibition – Jurkat cells, luminescence, dose response (AID 489035)).

| Compound | IC50 |
| --- | --- |
| CSc1ccc(COC(=O)c2cc([N+](=O)[O-])ccc2N2CCOCC2)cc1 | > 80 µM (inactive) |
| Nc1nc2n[nH]nc2c(=O)[nH]1 | > 80 µM (inactive) |
| O=C1CC(c2cc(F)ccc2F)c2cc3c(cc2N1)CCC3 (stereo unspecified) | > 80 µM (inactive) |
| c1cc2c(cc1C1=NNC(=NC3CC3)SC1)OCCO2 | 0.26 µM |
| CCN1C/C(=C/c2ccc(OC)c(O)c2)C(=O)/C(=C/c2ccc(OC)c(O)c2)C1 | 22.5 µM (inactive) |
| O=C1c2c(O)ccc(O)c2C(=O)c2c(NCCNCCO)ccc(NCCNCCO)c21 | 2.23 µM |
| CCOc1ccc(-c2[nH]ncc2-c2ccc(OC)c(OC)c2)c(O)c1 | 28.4 µM (inactive) |
| COC(=O)c1cnc(Oc2ccc(NC(=O)NC(=O)c3c(F)cccc3Cl)cc2)cc1C(F)(F)F | > 80 µM (inactive) |
| O=C1/C(=C/c2ccc(N3CCOCC3)o2)SC(=Nc2ccccc2)N1CCc1c[nH]c2ccccc12 | 18.3 µM |
| COc1ccc(OC)c(COC(=O)c2cc([N+](=O)[O-])ccc2N2CCOCC2)c1 | 71.8 µM (inactive) |
| Cc1cc(-c2ccc(C(C)C)c(S(=O)(=O)N3CCN(c4ccccc4)CC3)c2)on1 | > 80 µM (inactive) |
| CCN(CC)c1ccc2nc3ccccc3[n+](CC)c2c1 | 12.4 µM |
| Cn1c(SC2=CS(=O)(=O)c3ccccc32)nc2ccccc21 | 1.46 µM |
| O=C(Nc1cccc2ccccc12)OC1C=CS(=O)(=O)C1 (stereo unspecified) | 1.06 µM |
| CC1(C)C[C@H]2C=C(C=O)[C@]3(C=O)C[C@]3(C)[C@H]2C1 | 9.17 µM |
| C=C1C(O)[C@@H]2O[C@]3(CC[C@H](/C=C/C(C)[C@@H]4CC(C)=CC5(O[C@H](C[C@@](C)(O)CO)CCC5O)O4)O3)CC[C@H]2O[C@@H]1C(O)CC(C)[C@H]1OC2(CCCCO2)CCC1C (stereo partly specified) | 0.29 µM |
| Cc1ccc(S(=O)(=O)Nc2cccc(-c3ccc4nncn4n3)c2)cc1 | > 80 µM (inactive) |
| CCCSc1nnc(Sc2nnnn2-c2ccccc2)s1 | 2.09 µM |
| COc1ccc(Nc2cc(C)nc(-n3nc(C)cc3C)n2)cc1 | > 80 µM (inactive) |
| C[C@]12CC[C@@H]3c4cc(O)c(O)cc4CC[C@H]3[C@@H]1CC[C@@H]2O | 4.76 µM |
| CCCCCN1C=CC(=C2C(=O)c3ccccc3C2=O)C=C1 | 0.37 µM |
| CC1(C)Cc2c(sc(NC(=O)COc3cccc4ccccc34)c2C#N)C(C)(C)N1 | 13.5 µM |
| c1ccc(-c2noc(-c3ccc4ccccc4c3)n2)nc1 | 0.46 µM |
| COc1ccccc1NC(=O)Cn1nnc(C(=O)NCc2cccs2)c1N | > 80 µM (inactive) |
| O=C(NCc1cccs1)C1CCN(c2ccc(S(=O)(=O)N3CCOCC3)cc2Cl)CC1 | 25.6 µM (inactive) |
| CCCCS(=O)(=O)/C=C\C=C/S(=O)(=O)CCCC | 0.72 µM |

| Compound | IC50 |
| --- | --- |
| Cc1cccc(N2CCN(C(=O)c3ccc(S(=O)(=O)N(C)c4ccccc4)cc3)CC2)c1C | > 80 µM (inactive) |
| O=C(Nc1ccc(S(=O)(=O)Nc2ccccc2)cc1)c1ccc(CN2CCOCC2)cc1 | 29.5 µM (inactive) |
| O=C(Nc1ccn(Cc2ccccc2F)n1)c1ccc(COc2ccc(Br)cc2)cc1 | > 80 µM (inactive) |
| Cc1ccc(C(=O)c2cc([N+](=O)[O-])ccc2N2CCCCC2)cc1C | 37 µM (inactive) |
| Cc1cc(/C=C2\Sc3ccccc3N2C)cc(C)[n+]1CC1CCCO1 (stereo unspecified) | 19.2 µM |
| Clc1ccc2c(c1)C(C1=NCCN1)c1ccccc1CS2 (stereo unspecified) | 58.5 µM (inactive) |
| CCOC(=O)COc1cccc2c(=O)n(CC(=O)NCc3ccc(F)cc3)ccc12 | > 80 µM (inactive) |
| Cc1ccc2c(c1)sc(-c1ccc(N(C)C)cc1)[n+]2C | > 80 µM (inactive) |
| O=C(Cc1ccc(-c2ccccc2)cc1)NCc1ccccc1 | < 0.16 µM |
| CNC[C@H](CC1CCCCC1)NC[C@H](Cc1ccccc1)NCCC12CC3CC(CC(C3)C1)C2 | 2.42 µM |
| O=C(COc1ccccc1-c1ccccc1)N/N=C/c1cccc2ccccc12 | < 0.16 µM |
| CCCC1=Nc2cc(C(=O)NCCCOCC)ccc2Sc2ccccc21 | 24 µM (inactive) |
| Cc1ccc(C(=O)N/N=C/c2ccc([N+](=O)[O-])s2)cc1 | 1.26 µM |
| Nc1nc(-c2ccccc2)cc(N2CCCCC2)n1 | > 80 µM (inactive) |
| O=C(O)c1ccc(N/N=C/c2ccc3c(c2)OCO3)cc1 | 2.78 µM |
| Cc1ccc(S(=O)(=O)NCc2ccncc2)cc1C | > 80 µM (inactive) |
| O=C(O)c1ccc(-c2ccc(-c3ccccc3)cc2)s1 | 1.39 µM |
| COc1cc(NCCCCCCCN)c2ncccc2c1 | 21 µM (inactive) |
| COc1ccc(NS(=O)(=O)c2cc(-c3cnc(C4CC4)o3)ccc2C)cc1 | 27 µM (inactive) |
| CCOc1ccc(S(=O)(=O)NCc2ccccn2)cc1NC(=O)c1ccccc1 | > 80 µM (inactive) |
| COc1cc(OC)c(/C=C2\C(=O)Nc3ccccc32)c(OC)c1 | 18.4 µM |
| O=C(c1ccccc1-c1ccccc1)N1CCN(c2ccccn2)CC1 | > 80 µM (inactive) |
| Cc1ccc(Nc2nc(-c3c(C)nc4ccccn34)cs2)cc1 | 24.6 µM (inactive) |
| CCn1c2ccccc2c2cc(NC(=O)c3cc(OC)cc(OC)c3)ccc21 | > 80 µM (inactive) |
| CCCCC(=O)NC(c1ccc(N(CC)CC)cc1)c1ccc2cccnc2c1O (stereo unspecified) | 8.89 µM |
